{
  "source": "patent US5663197A",
  "about": "“2-(1-hydroxyethyl)-5-hydroxynaphtho[2,3-b]furan-4,9-dione and antitumor agents comprising this compound” (priority 1992, dated 1997)",
  "system": "carcinogenic promotion (skin papillomas in mice)",
  "assay": "Inhibition of two-step skin carcinogenesis in mice skin",
  "format": "in vivo, mouse (female ICR)",
  "details": "DMBA initiator, TPA promoter, 20 weeks; FIG. 28 (NFD 85 nmol), FIG. 29 (lapacoal)",
  "experimental": "Female ICR mice were used as test animals. Fifteen mice were housed in a cage and kept on a commercial pellet diet and drinking water ad libitum until the end of the experiment. The mice were purchased at their age of six-week-old. Dorsal hair of mice was shaved, and next day, 390 nmol of 7,12-dimethylbenz(a)anthracene (DMBA) in 0.1 ml acetone was applied, as an initiator, on the shaved back. One week later, 1.7 nmol of 12-O-tetradecanoylphorbol-13-acetate (TPA) in 0.1 ml acetone was applied, as a promoter, to the same place twice a week. This procedure was repeated for 20 weeks.\nMice were observed once a week for the number of papillomas larger than 1 mm, and the experimental results were given as the percentage of papilloma-bearing mice in each group and the number of papillomas per mouse.",
  "data": [
    {"compound": "CC(C)=CCC1=C(O)C(=O)c2ccccc2C1=O", "note": "[lapacoal, reference compound]", "values": [
      {"measurement": "inhibitory effect on carcinogenic promotion in skin", "result": "inhibitory effect"}
    ]}
  ]
}
